Data published in US10414774B2, “Compound useful for altering the levels of bile acids for the treatment of diabetes and cardiometabolc disease” (Merck Sharp & Dohme Corp., priority 2016, dated 2019).

Biological target: T1, Human CYP8B1 (Homo sapiens, UniProt Q9UNU6)
T1 sequence (Q9UNU6 1-501): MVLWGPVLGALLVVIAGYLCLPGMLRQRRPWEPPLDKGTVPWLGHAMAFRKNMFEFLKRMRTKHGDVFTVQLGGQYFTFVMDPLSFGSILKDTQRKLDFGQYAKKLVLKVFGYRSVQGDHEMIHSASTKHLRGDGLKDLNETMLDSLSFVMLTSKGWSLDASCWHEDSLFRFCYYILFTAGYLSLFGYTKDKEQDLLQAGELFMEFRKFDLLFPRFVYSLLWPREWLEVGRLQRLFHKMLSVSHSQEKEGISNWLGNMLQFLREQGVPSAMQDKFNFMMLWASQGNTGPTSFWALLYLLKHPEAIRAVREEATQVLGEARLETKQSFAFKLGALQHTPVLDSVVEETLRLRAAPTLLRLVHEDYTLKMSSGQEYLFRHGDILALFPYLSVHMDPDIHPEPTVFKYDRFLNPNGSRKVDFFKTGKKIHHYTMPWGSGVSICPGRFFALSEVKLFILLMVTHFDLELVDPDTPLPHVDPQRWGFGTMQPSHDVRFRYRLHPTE
Test: Human CYP8B1 Liver Microsome Assay
Settings: Human CYP8B1 IC50, human liver microsomes; substrate 7a-hydroxy-4-cholesten-3-one, NADPH; RapidFire MS detection of 7α,12α-dihydroxy-4-cholesten-3-one

| IC50 [nM] | Compound |
| --- | --- |
| 318 | C[C@H]1CN(c2c(C#N)cnc3c(F)c(Cl)ccc23)CC[C@H]1C(=O)N1CCn2c(nnc2C2CC2)C1 [Example 65, 7-chloro-4-{(3R,4R)-4-[(3-cyclopropyl-5,6-dihydro[1,2,4]triazolo[4,3-a]pyrazin-7(8H)-yl)carbonyl]-3-methylpiperidin-1-yl}-8-fluoroquinoline-3-carbonitrile] |
| 636 | CC1CC(C(=O)N2CCn3c(nnc3C(F)(F)F)C2)CCN1c1c(C#N)cnc2ccc(Cl)cc12 (single isomer, unassigned) [Example 73d, 6-chloro-4-[(2R,4S) or (2S,4R)-2-methyl-4-{[3-(trifluoromethyl)-5,6-dihydro[1,2,4]triazolo[4,3-a]pyrazin-7(8H)-yl]carbonyl}piperidin-1-yl]quinoline-3-carbonitrile] |
| 1.3 | C[C@@H]1CN(c2c(C#N)cnc3cccnc23)CC[C@@H]1C(=O)N1CCn2c(nnc2C(F)(F)F)C1 [Example 33, 4-[(3S,4S)-3-methyl-4-{[3-(trifluoromethyl)-5,6-dihydro[1,2,4]triazolo[4,3-a]pyrazin-7(8H)-yl]carobnyl}piperidin-1-yl]-1,5-naphthyridine-3-carbonitrile] |
| 4.5 | C[C@@H]1CN(c2c(C#N)c(CO)nc3ccc(Cl)cc23)CC[C@@H]1C(=O)N1CCn2c(nnc2C(F)(F)F)C1 [Example 61, 6-chloro-2-(hydroxymethyl)-4-[(3S,4S)-3-methyl-4-{[3-(trifluoromethyl)-5,6-dihydro[1,2,4]triazolo[4,3-a]pyrazin-7(8H)-yl]carbonyl}piperidin-1-yl]quinoline-3-carbonitrile] |
| 0.88 | COc1ccc2c(N3CC[C@H](C(=O)N4CCn5c(nnc5C(F)F)C4)[C@H](C)C3)c(C#N)cnc2c1 [Example 70, 4-[(3S,4S)-4-{[3-(difluoromethyl)-5,6-dihydro[1,2,4]triazolo[4,3-a]pyrazin-7(8H)-yl]carbonyl}-3-methylpiperidin-1-yl]-7-methoxyquinoline-3-carbonitrile] |
| 43 | N#Cc1cnc2c(F)c(Cl)ccc2c1N1CCC(C(=O)N2CCn3c(nnc3C(F)(F)F)C2)CC1 [Example 41, 7-chloro-8-fluoro-4-(4-{[3-(trifluoromethyl)-5,6-dihdyro[1,2,4]triazolo[4,3-a]pyrazin-7(8H)-yl]carbonyl}piperidin-1-yl)quinoline-3-carbonitrile] |
| 1.1 | C[C@@H]1CN(c2c(C#N)cnc3cc(OC(F)F)ccc23)CC[C@@H]1C(=O)N1CCn2c(nnc2C(F)(F)F)C1 [Example 62, 7-(difluoromethoxy)-4-[(3S,4S)-3-methyl-4-{[3-(trifluoromethyl)-5,6-dihydro[1,2,4]triazolo[4,3-a]pyrazin-7(8H)-yl]carbonyl}piperidin-1-yl]quinoline-3-carbonitrile] |
| 19 | Cc1nc2ccc(Cl)cc2c(N2CC[C@H](C(=O)N3CCc4sc(C(F)(F)F)nc4C3)[C@H](C)C2)c1C#N [Example 98, 6-chloro-2-methyl-4-[(3S,4S)-3-methyl-4-{[2-(trifluoromethyl)-6,7-dihydro[1,3]thiazolo[4,5-c]pyridin-5(4H)-yl]carbonyl}piperidin-1-yl]quinoline-3-carbonitrile] |
| 58 | COc1ccc2c(N3CC[C@H](C(=O)N4Cc5nnc(C(F)(F)F)n5C(C)(C)C4)[C@H](C)C3)c(C#N)cnc2c1F [Example 82, 4-((3S,4S)-4-(5,5-dimethyl-3-(trifluoromethyl)-5,6,7,8-tetrahydro-[1,2,4]triazolo[4,3-a]pyrazine-7-carbonyl)-3-methylpiperidin-1-yl)-8-fluoro-7-methoxyquinoline-3-carbonitrile] |
| 169 | N#Cc1cnc2ccc(Cl)cc2c1N1CCC(F)(C(=O)N2CCn3c(nnc3C(F)(F)F)C2)CC1 [Example 120, 6-chloro-4-(4-fluoro-4-{[3-(trifluoromethyl)-5,6-dihydro[1,2,4]triazolo[4,3-a]pyrazin-7(8H)-yl]carbonyl}piperidin-1-yl)quinoline-3-carbonitrile] |
| 0.36 | C[C@@H]1CN(c2c(C#N)cnc3cc(Br)ccc23)CC[C@@H]1C(=O)N1CCn2c(nnc2C(F)(F)F)C1 [Example 4, 7-bromo-4-[(3S,4S)-3-methyl-4-{[3-(trifluoromethyl)-5,6-dihydro[1,2,4]triazolo[4,5-a]pyrazin-7(8H)-yl]carbonyl}piperidin-1-yl]quinoline-3-carbonitrile] |
| 0.74 | C[C@@H]1CN(c2c(C#N)cnc3cc(Cl)ccc23)CC[C@@H]1C(=O)N1CCn2c(nnc2C(F)(F)F)C1 [Example 27, 7-chloro-4-[(3S,4S)-3-methyl-4-{[3-(trifluoromethyl)-5,6-dihydro[1,2,4]triazolo[4,3-a]pyrazin-7(8H)-yl]carbonyl}piperidin-1-yl]quinoline-3-carbonitrile] |
| 110 | N#Cc1cnc2ccc(Cl)cc2c1C1CCC(C(=O)N2CCn3c(nnc3C(F)(F)F)C2)CC1 (mixture of isomers) [Example 124, 6-chloro-4-(4-{[3-(trifluoromethyl)-5,6-dihydro[1,2,4]triazolo[4,3-a]pyrazin-7(8H)-yl]carbonyl}cyclohexyl)quinoline-3-carbonitrile] |
| 2 | C[C@@H]1CN(c2c(C#N)cnc3c2CCN(C(=O)OC2(C)CC2)C3)CC[C@@H]1C(=O)N1CCn2c(nnc2C2CC2)C1 [Example 85, 1-methylcyclopropyl 3-cyano-4-((3S,4S)-4-(3-cyclopropyl-5,6,7,8-tetrahydro-[1,2,4]triazolo[4,3-a]pyrazine-7-carbonyl)-3-methylpiperidin-1-yl)-5,6-dihydro-1,7-naphthyridine-7(8H)-carboxylate] |
| 0.3 | C[C@@H]1CN(c2c(C#N)cnc3c(F)cc(C4CCC4)cc23)CC[C@@H]1C(=O)N1CCn2c(nnc2C(F)(F)F)C1 [Example 87, 6-cyclobutyl-8-fluoro-4-((3S,4S)-3-methyl-4-(3-(trifluoromethyl)-5,6,7,8-tetrahydro-[1,2,4]triazolo[4,3-a]pyrazine-7-carbonyl)piperidin-1-yl) quinoline-3-carbonitrile] |
| 0.24 | COc1cc2ncc(C#N)c(N3CC[C@H](C(=O)N4CCn5c(nnc5C(F)(F)F)C4)[C@H](C)C3)c2cc1Br [Example 20, 6-bromo-7-methoxy-4-[(3S,4S)-3-methyl-4-{[3-(trifluoromethyl)-5,6-dihydro[1,2,4]triazolo[4,3-a]pyrazin-7(8H)-yl]carbonyl}piperidin-1-yl]quinoline-3-carbonitrile] |
| 0.42 | CC(C)COc1ccc2c(N3CCC(C(=O)N4CCn5c(nnc5C(F)(F)F)C4)CC3)c(C#N)cnc2c1 [Example 69] |
| 0.35 | C[C@@H]1CN(c2c(C#N)cnc3cc(OCC4CC4)ccc23)CC[C@@H]1C(=O)N1CCn2c(nnc2C(F)(F)F)C1 [Example 100, 7-(cyclopropylmethoxy)-4-[(3S,4S)-3-methyl-4-{[3-(trifluoromethyl)-5,6-dihydro[1,2,4]triazolo[4,3-a]pyrazin-7(8H)-yl]carbonyl}piperidin-1-yl]quinoline-3-carbonitrile] |
| 90 | N#Cc1cnc2ccc(Cl)cc2c1N1CCC(C(=O)N2CCc3c(C(F)(F)F)n[nH]c3C2)CC1 [Example 111, 6-chloro-4-(4-{[3-(trfluoromethyl)-1,4,5,7-tetrahydro-6H-pyrazolo[3,4-c]pyridin-6-yl]carbonyl}piperidin-1-yl)quinoline-3-carbonitrile] |
| 0.4 | C[C@@H]1CN(c2c(C#N)cnc3c(F)c(OC(F)F)ccc23)CC[C@@H]1C(=O)N1CCn2c(nnc2C(F)(F)F)C1 [Example 36, 7-(difluoromethoxy)-8-fluoro-4-[(3S,4S)-3-methyl-4-{[3-(trifluoromethyl)-5,6-dihdyro[1,2,4]triazolo[4,3-a]pyrazin-7(8H)-yl]carbonyl}piperidin-1-yl]quinoline-3-carbonitrile] |
| 15 | CC1CC(C(=O)N2CCn3c(nnc3C(F)(F)F)C2)CCN1c1c(C#N)cnc2ccc(Cl)cc12 (single isomer, unassigned) [Example 73b, 6-chloro-4-[(2R,4R) or (2S,4S)-2-methyl-4-{[3-(trifluoromethyl)-5,6-dihydro[1,2,4]triazolo[4,3-a]pyrazin-7(8H)-yl]carbonyl}piperidin-1-yl]quinoline-3-carbonitrile] |
| 0.29 | N#Cc1cnc2ccc(Cl)cc2c1N1CC[C@H](C(=O)N2CCn3c(nnc3C(F)(F)F)C2)[C@H](C2CC2)C1 [Example 76c, 6-chloro-4-[(3S,4S)-3-cyclopropyl-4-{[3-(trifluoromethyl)-5,6-dihydro[1,2,4]triazolo[4,3-a]pyrazin-7(8H)-yl]carbonyl}piperidin-1-yl]quinoline-3-carbonitrile] |
| 6.3 | N#Cc1cnc2cc(C(F)(F)F)ccc2c1N1CCC(C(=O)N2CCn3c(nnc3C(F)(F)F)C2)CC1 [Example 43, 7-(trifluoromethyl)-4-(4-{[3-(trifluoromethyl)-5,6-dihydro[1,2,4]triazolo[4,3-a]pyrazin-7(8H)-yl]carbonyl}piperidin-1-yl)quinoline-3-carbonitrile] |
| 0.3 | CC(C)Oc1ccc2c(N3CC[C@H](C(=O)N4CCn5c(nnc5C(F)(F)F)C4)[C@H](C)C3)c(C#N)cnc2c1 [Example 64, 4-[(3S,4S)-3-methyl-4-{[3-(trifluoromethyl)-5,6-dihydro[1,2,4]triazolo[4,3-a]pyrazin-7(8H)-yl]carbonyl}piperidin-1-yl]-7-(propan-2-yloxy)quinoline-3-carbonitrile] |
| 1930 | N#Cc1cnc2ccc(Cl)cc2c1N1CC[C@@]2(C(=O)N3CCn4c(nnc4C(F)(F)F)C3)C[C@H]2C1 (single isomer, unassigned) [Example 81b] |
